The values that follow come from paper PMC3395807 (Journal of Medicinal Chemistry, 2012).

One data set has as its system rat plasma protein. Kind of data set: Rat plasma protein binding.
For the next data set, the system named is human plasma protein. Briefly: Human plasma protein binding.
The subject of data set [1] is DENV. Briefly: DENV in-cell western assay in Huh7.5 cells. The note with it: DENV infected Huh7.5 cells, side-by-side comparison, Figure 5A. It is filed as cell-based, dengue virus.
A further data set deals with mouse plasma protein. Kind of data set: Mouse plasma protein binding.
Data set [2] relates to human CYP450s (1A2, 2C9, 2C19, 2D6, and 3A4). Kind of data set: Inhibition of five major human CYP450s. To be noted: 10 μM.
Data set [3] deals with DENV. Briefly: DENV virus yield reduction assay in BHK cells. It is filed as cell-based, dengue virus (serotype 2, New Guniea C strain). The note with it: 0.8 to 20 μM, Figure 5B.
The nature of data set [4]: MTT cytotoxicity assay in BHK cells. To be noted: hamster. (Formazan colour is commonly taken as a measure of viable cells.)
Data set [5] relates to DENV. The note with it: DENV infected AG129 mice; cited from earlier work.

Structures are written as SMILES. “Also recorded” adds a separate entry of the source.

With `CCCC(CCC)OCCCCCCN1C[C@H](O)[C@@H](O)[C@H](O)[C@H]1CO` [Compound 1c], the “Rat Plasma Protein Binding” value with rat plasma protein is 77 % bound. In addition, the “Human Plasma Protein Binding” value in the data set on human plasma protein is given as 91 % bound.
Consider `OC[C@@H]1[C@@H](O)[C@H](O)[C@@H](O)CN1CCCCCCOC1CCCCCC1` [Compound 2l, (2R,3R,4R,5S)-1-(6-(Cycloheptyloxy)hexyl)-2-(hydroxymethyl)piperidine-3,4,5-triol], for which, in the data set with DENV [1], the “antiviral activity in in-cell western assay” value (shortened to “antiviral activity”) is given as “much improved antiviral activity compared to compound 7”. Further, the “Rat Plasma Protein Binding” value in the data set with rat plasma protein turned out to be 65 % bound. For the same molecule, in the data set with human plasma protein, the “Human Plasma Protein Binding” value is reported as 71 % bound.
`Cc1cccc(OCCCCCCN2C[C@H](O)[C@@H](O)[C@H](O)[C@H]2CO)c1` [Compound 3c]: the “Rat Plasma Protein Binding” value in the data set on rat plasma protein was found to be 79 % bound. The “Human Plasma Protein Binding” value with human plasma protein was 80 % bound.
On to `OC[C@@H]1[C@@H](O)[C@H](O)[C@@H](O)CN1CCCCCCOc1cccc(F)c1` [Compound 3j, (2R,3R,4R,5S)-1-(6-(3-Fluorophenoxy)hexyl)-2-(hydroxymethyl)piperidine-3,4,5-triol], for which the “antiviral activity” value in the data set on DENV [1] is “much improved antiviral activity compared to compound 7”. In addition, the “Rat Plasma Protein Binding” value in the data set with rat plasma protein was 71 % bound. Moreover, in the data set with human plasma protein, the “Human Plasma Protein Binding” value was determined as 78 % bound. In the data set on mouse plasma protein, the “Mouse Plasma Protein Binding” value was 79 % bound. Further, in data set [2], the “inhibition on any of the five major drug metabolizing human CYP450s” value (from here on “inhibition on any”) was “no inhibition”.
As for `OC[C@@H]1[C@@H](O)[C@H](O)[C@@H](O)CN1CCCCCCOc1cc(F)ccc1F` [Compound 3l, (2R,3R,4R,5S)-1-(6-(2,5-Difluorophenoxy)hexyl)-2-(hydroxymethyl)piperidine-3,4,5-triol], the “reduction of DENV titers” value with DENV [3] is reported as “being the most potent”. In addition, in the data set with DENV [1], the “antiviral activity” value was “much improved antiviral activity compared to compound 7; also recorded: the most potent one”. For the same molecule, the “Rat Plasma Protein Binding” value in the data set on rat plasma protein is 68 % bound. Also, in the data set with human plasma protein, the “Human Plasma Protein Binding” value is on record as 74 % bound. Further, the “Mouse Plasma Protein Binding” value in the data set with mouse plasma protein was determined as 77 % bound.
As for `OC[C@@H]1[C@@H](O)[C@H](O)[C@@H](O)CN1CCCCCCOc1cccc(C(F)(F)F)c1` [Compound 3p], the “Rat Plasma Protein Binding” value in the data set on rat plasma protein came to 90 % bound. Besides, the “Human Plasma Protein Binding” value in the data set with human plasma protein amounted to 93 % bound.
For `COc1ccccc1OCCCCCCN1C[C@H](O)[C@@H](O)[C@H](O)[C@H]1CO` [Compound 3s], the “Rat Plasma Protein Binding” value in the data set on rat plasma protein stood at 70 % bound. For the same molecule, the “Human Plasma Protein Binding” value with human plasma protein came out at 65 % bound. In addition, the “inhibition on any” value in data set [2] is given as “no inhibition”.
Take `OC[C@@H]1[C@@H](O)[C@H](O)[C@@H](O)CN1CCCCCCOCc1ccccc1` [Compound 3v, (2R,3R,4R,5S)-1-(6-(Benzyloxy)hexyl)-2-(hydroxymethyl)piperidine-3,4,5-triol]: the “antiviral activity” value in the data set on DENV [1] is listed as “much improved antiviral activity compared to compound 7”. Further, the “Rat Plasma Protein Binding” value in the data set with rat plasma protein turned out to be 49 % bound. For the same molecule, the “Human Plasma Protein Binding” value with human plasma protein is reported as 52 % bound. Further, the “inhibition on any” value in data set [2] was “no inhibition”.
With `CCCOc1cccc(CCCN2C[C@H](O)[C@@H](O)[C@H](O)[C@H]2CO)c1` [Compound 4b, (2R,3R,4R,5S)-2-(Hydroxymethyl)-1-(3-(3-propoxyphenyl)propyl)piperidine-3,4,5-triol], the “antiviral activity” value with DENV [1] is “much improved antiviral activity compared to compound 7”. In addition, in the data set on rat plasma protein, the “Rat Plasma Protein Binding” value worked out at 57 % bound. For the same molecule, the “Human Plasma Protein Binding” value with human plasma protein stood at 68 % bound. Besides, the “inhibition on any” value in data set [2] is “no inhibition”.
As a reminder, the CC50 is the concentration giving 50% cytotoxicity. Read a low CC50 as harm at low concentration. `OC[C@@H]1[C@@H](O)[C@H](O)[C@@H](O)CN1CC/C=C\CCOc1cc(F)ccc1F` [Compound 5c, (2R,3R,4R,5S)-1-((Z)-6-(2,5-Difluorophenoxy)hex-3-en-1-yl)-2-(hydroxymethyl)piperidine-3,4,5-triol] gave a CC50 in data set [4] of over 500 µM.
`CCC(O)(CC)CCCCCCN1C[C@H](O)[C@@H](O)[C@H](O)[C@H]1CO` [Compound 7, (2R,3R,4R,5S)-1-(7-Ethyl-7-hydroxynonyl)-2-(hydroxymethyl)piperidine-3,4,5-triol]: in the data set with DENV [5], the “in vivo antiviral efficacy (viremia)” value is recorded as “reducing viremia”. Also, the “Rat Plasma Protein Binding” value in the data set with rat plasma protein came out at 30 % bound. Also, the “Human Plasma Protein Binding” value in the data set with human plasma protein stood at 33 % bound.
